Reference: patent US6380134B1, “N-pyridyl herbicide compounds” (Syngenta Crop Protection, Inc., priority 1998, dated 2002)

Assays:
Assay type in all cases: in vivo
Parameters in all cases: key: 1=complete damage; 9=no effect; Score figures of 1 to 4 (in particular 1 to 3) signify a good to very good herbicidal action
Ipomoea [1] = experiment: Herbicidal action before plant emergence (pre-emergence action); details: 2000 g a.i./ha sprayed immediately after sowing; evaluated after 3 weeks; nine-level key (1=complete damage, 9=no effect)
Description: (§1) Monocotyledonous and dicotyledonous test plants are sown in standard soil in plastic pots. Immediately after sowing, the test substances are sprayed on as aqueous suspensions (prepared from a 25% strength wettable powder (Example F3, b) in accordance with WO 97/34485) or as emulsions (prepared from a 25% strength emulsion concentrate (Example F1, c) in accordance with WO 97/34485), corresponding to a dosage of 2 kg of a.i./ha (500 l of water/ha). The test plants are subsequently grown in the greenhouse under optimal conditions. After a test period of 3 weeks, the experiment is evaluated using a nine-level key (1=complete damage, 9=no effect). Score figures of 1 to 4 (in particular 1 to 3) signify a good to very good herbicidal action.
(§2) Test plants: Lolium, Setaria, Sinapis, Solanum, Stellaria, Ipomea.

Lolium [2] = experiment: as above; details: 2000 g a.i./ha sprayed immediately after sowing; evaluated after 3 weeks; nine-level key (1=complete damage, 9=no effect)
Description: as §1, §2

Setaria [3] = experiment: as above; details: 2000 g a.i./ha sprayed immediately after sowing; evaluated after 3 weeks; nine-level key (1=complete damage, 9=no effect)
Description: as §1, §2

Sinapis [4] = experiment: as above; details: 2000 g a.i./ha sprayed immediately after sowing; evaluated after 3 weeks; nine-level key (1=complete damage, 9=no effect)
Description: as §1, §2

Solanum [5] = experiment: as above; details: 2000 g a.i./ha sprayed immediately after sowing; evaluated after 3 weeks; nine-level key (1=complete damage, 9=no effect)
Description: as §1, §2

Stellaria [6] = experiment: as above; details: 2000 g a.i./ha sprayed immediately after sowing; evaluated after 3 weeks; nine-level key (1=complete damage, 9=no effect)
Description: as §1, §2

Ipomoea [7] = experiment: Post-emergence herbicidal action; details: dose 2000 g a.i./ha; sprayed at 4- to 6-leaf stage; evaluated after approximately 18 days; nine-level key (1=complete damage, 9=no effect)
Description: (§3) Monocotyledonous and dicotyledonous test plants are grown in the greenhouse in plastic pots containing standard soil and, in the 4- to 6-leaf stage, sprayed with an aqueous suspension of the test substances of the formula I, prepared from a 25% strength wettable powder (Example F3, b) in accordance with WO 97/34485) or with an emulsion of the test substances of the formula I, prepared from a 25% strength emulsion concentrate (Example F1, c) in accordance with WO 97/34485), corresponding to a dosage of 2 kg/ a.i./ha (500 l of water/ha). The test plants are subsequently grown on in the greenhouse under optimal conditions. After a test period of approximately 18 days, the experiment is evaluated using a nine-level key (1=complete damage, 9=no effect). Score figures of 1 to 4 (in particular 1 to 3) signify a good to very good herbicidal action.
as §2

Lolium [8] = experiment: Post-emergence herbicidal action; details: dose 2000 g a.i./ha; sprayed at 4- to 6-leaf stage; evaluated after approximately 18 days; nine-level key (1=complete damage, 9=no effect)
Description: as §3, §2

Setaria [9] = experiment: Post-emergence herbicidal action; details: dose 2000 g a.i./ha; sprayed at 4- to 6-leaf stage; evaluated after approximately 18 days; nine-level key (1=complete damage, 9=no effect)
Description: as §3, §2

Sinapis [10] = experiment: Post-emergence herbicidal action; details: dose 2000 g a.i./ha; sprayed at 4- to 6-leaf stage; evaluated after approximately 18 days; nine-level key (1=complete damage, 9=no effect)
Description: as §3, §2

Solanum [11] = experiment: Post-emergence herbicidal action; details: dose 2000 g a.i./ha; sprayed at 4- to 6-leaf stage; evaluated after approximately 18 days; nine-level key (1=complete damage, 9=no effect)
Description: as §3, §2

Stellaria [12] = experiment: Post-emergence herbicidal action; details: dose 2000 g a.i./ha; sprayed at 4- to 6-leaf stage; evaluated after approximately 18 days; nine-level key (1=complete damage, 9=no effect)
Description: as §3, §2

Compound: Cn1c(C(F)(F)F)cc(=O)n(-c2nc(OCC(N)=O)c(Cl)cc2F)c1=O [1.366]
- Pre-emergence action, score, test plant Ipomoea (Ipomoea [1]): 1
- Pre-emergence action, score, test plant Lolium (Lolium [2]): 3
- Pre-emergence action, score, test plant Setaria (Setaria [3]): 1
- Pre-emergence action, score, test plant Sinapis (Sinapis [4]): 1
- Pre-emergence action, score, test plant Solanum (Solanum [5]): 1
- Pre-emergence action, score, test plant Stellaria (Stellaria [6]): 3
- Post-emergence action, score, Ipomoea (Ipomoea [7]): 1
- Post-emergence action, score, Lolium (Lolium [8]): 1
- Post-emergence action, score, Setaria (Setaria [9]): 1
- Post-emergence action, score, Sinapis (Sinapis [10]): 1
- Post-emergence action, score, Solanum (Solanum [11]): 1
- Post-emergence action, score, Stellaria (Stellaria [12]): 1

Compound: COc1nc(-n2c(=O)cc(C(F)(F)F)n(C)c2=O)c(F)cc1Cl [1.016]
- Pre-emergence action, score, test plant Ipomoea (Ipomoea [1]): 1
- Pre-emergence action, score, test plant Lolium (Lolium [2]): 1
- Pre-emergence action, score, test plant Setaria (Setaria [3]): 1
- Pre-emergence action, score, test plant Sinapis (Sinapis [4]): 1
- Pre-emergence action, score, test plant Solanum (Solanum [5]): 1
- Pre-emergence action, score, test plant Stellaria (Stellaria [6]): 1
- Post-emergence action, score, Ipomoea (Ipomoea [7]): 1
- Post-emergence action, score, Lolium (Lolium [8]): 1
- Post-emergence action, score, Setaria (Setaria [9]): 1
- Post-emergence action, score, Sinapis (Sinapis [10]): 1
- Post-emergence action, score, Solanum (Solanum [11]): 1
- Post-emergence action, score, Stellaria (Stellaria [12]): 1

Compound: Cn1c(C(F)(F)F)cc(=O)n(-c2nc(Cl)c(Cl)cc2F)c1=O [1.396]
- Pre-emergence action, score, test plant Ipomoea (Ipomoea [1]): 1
- Pre-emergence action, score, test plant Lolium (Lolium [2]): 1
- Pre-emergence action, score, test plant Setaria (Setaria [3]): 1
- Pre-emergence action, score, test plant Sinapis (Sinapis [4]): 1
- Pre-emergence action, score, test plant Solanum (Solanum [5]): 1
- Pre-emergence action, score, test plant Stellaria (Stellaria [6]): 1
- Post-emergence action, score, Ipomoea (Ipomoea [7]): 1
- Post-emergence action, score, Lolium (Lolium [8]): 3
- Post-emergence action, score, Setaria (Setaria [9]): 3
- Post-emergence action, score, Sinapis (Sinapis [10]): 1
- Post-emergence action, score, Solanum (Solanum [11]): 1
- Post-emergence action, score, Stellaria (Stellaria [12]): 3

Compound: Cn1c(C(F)(F)F)cc(=O)n(-c2nc(OCOCc3ccccc3)c(Cl)cc2F)c1=O [1.025]
- Pre-emergence action, score, test plant Ipomoea (Ipomoea [1]): 1
- Pre-emergence action, score, test plant Lolium (Lolium [2]): 3
- Pre-emergence action, score, test plant Setaria (Setaria [3]): 1
- Pre-emergence action, score, test plant Sinapis (Sinapis [4]): 1
- Pre-emergence action, score, test plant Solanum (Solanum [5]): 1
- Pre-emergence action, score, test plant Stellaria (Stellaria [6]): 3
- Post-emergence action, score, Ipomoea (Ipomoea [7]): 1
- Post-emergence action, score, Lolium (Lolium [8]): 1
- Post-emergence action, score, Setaria (Setaria [9]): 3
- Post-emergence action, score, Sinapis (Sinapis [10]): 1
- Post-emergence action, score, Solanum (Solanum [11]): 1
- Post-emergence action, score, Stellaria (Stellaria [12]): 1

Compound: COC(=O)C(C)Oc1nc(-n2c(=O)cc(C(F)(F)F)n(C)c2=O)c(F)cc1Cl (centres unmarked) [1.048]
- Pre-emergence action, score, test plant Ipomoea (Ipomoea [1]): 1
- Pre-emergence action, score, test plant Lolium (Lolium [2]): 1
- Pre-emergence action, score, test plant Setaria (Setaria [3]): 1
- Pre-emergence action, score, test plant Sinapis (Sinapis [4]): 1
- Pre-emergence action, score, test plant Solanum (Solanum [5]): 1
- Pre-emergence action, score, test plant Stellaria (Stellaria [6]): 1
- Post-emergence action, score, Ipomoea (Ipomoea [7]): 1
- Post-emergence action, score, Lolium (Lolium [8]): 1
- Post-emergence action, score, Setaria (Setaria [9]): 1
- Post-emergence action, score, Sinapis (Sinapis [10]): 1
- Post-emergence action, score, Solanum (Solanum [11]): 1
- Post-emergence action, score, Stellaria (Stellaria [12]): 1

Compound: CCOc1cc(F)c(-n2c(=O)cc(C(F)(F)F)n(C)c2=O)nc1Cl [500.004]
- Post-emergence action, score, Ipomoea (Ipomoea [7]): 3
- Post-emergence action, score, Sinapis (Sinapis [10]): 2
- Post-emergence action, score, Solanum (Solanum [11]): 1

Compound: Cn1c(C(F)(F)F)cc(=O)n(-c2nc(OCC#N)c(Cl)cc2F)c1=O [1.363]
- Pre-emergence action, score, test plant Ipomoea (Ipomoea [1]): 7
- Pre-emergence action, score, test plant Lolium (Lolium [2]): 3
- Pre-emergence action, score, test plant Setaria (Setaria [3]): 1
- Pre-emergence action, score, test plant Sinapis (Sinapis [4]): 2
- Pre-emergence action, score, test plant Solanum (Solanum [5]): 1
- Pre-emergence action, score, test plant Stellaria (Stellaria [6]): 1
- Post-emergence action, score, Ipomoea (Ipomoea [7]): 1
- Post-emergence action, score, Lolium (Lolium [8]): 1
- Post-emergence action, score, Setaria (Setaria [9]): 1
- Post-emergence action, score, Sinapis (Sinapis [10]): 1
- Post-emergence action, score, Solanum (Solanum [11]): 1
- Post-emergence action, score, Stellaria (Stellaria [12]): 1

Compound: CCCOc1nc(-n2c(=O)cc(C(F)(F)F)n(C)c2=O)c(F)cc1Cl [1.367]
- Pre-emergence action, score, test plant Ipomoea (Ipomoea [1]): 1
- Pre-emergence action, score, test plant Lolium (Lolium [2]): 1
- Pre-emergence action, score, test plant Setaria (Setaria [3]): 1
- Pre-emergence action, score, test plant Sinapis (Sinapis [4]): 1
- Pre-emergence action, score, test plant Solanum (Solanum [5]): 1
- Pre-emergence action, score, test plant Stellaria (Stellaria [6]): 1
- Post-emergence action, score, Ipomoea (Ipomoea [7]): 1
- Post-emergence action, score, Lolium (Lolium [8]): 1
- Post-emergence action, score, Setaria (Setaria [9]): 1
- Post-emergence action, score, Sinapis (Sinapis [10]): 1
- Post-emergence action, score, Solanum (Solanum [11]): 1
- Post-emergence action, score, Stellaria (Stellaria [12]): 1

Compound: C=CCOC(=O)C(C)(C)Oc1nc(-n2c(=O)cc(C(F)(F)F)n(C)c2=O)c(F)cc1Cl [1.402]
- Pre-emergence action, score, test plant Ipomoea (Ipomoea [1]): 4
- Pre-emergence action, score, test plant Lolium (Lolium [2]): 1
- Pre-emergence action, score, test plant Setaria (Setaria [3]): 1
- Pre-emergence action, score, test plant Sinapis (Sinapis [4]): 1
- Pre-emergence action, score, test plant Solanum (Solanum [5]): 1
- Pre-emergence action, score, test plant Stellaria (Stellaria [6]): 1
- Post-emergence action, score, Ipomoea (Ipomoea [7]): 1
- Post-emergence action, score, Lolium (Lolium [8]): 1
- Post-emergence action, score, Setaria (Setaria [9]): 1
- Post-emergence action, score, Sinapis (Sinapis [10]): 1
- Post-emergence action, score, Solanum (Solanum [11]): 1
- Post-emergence action, score, Stellaria (Stellaria [12]): 1

Compound: COC(=O)C(C)Oc1cc(F)c(-n2c(=O)cc(C(F)(F)F)n(C)c2=O)nc1Cl (centres unmarked) [500.029]
- Pre-emergence action, score, test plant Setaria (Setaria [3]): 4
- Pre-emergence action, score, test plant Solanum (Solanum [5]): 1
- Post-emergence action, score, Ipomoea (Ipomoea [7]): 1
- Post-emergence action, score, Sinapis (Sinapis [10]): 1
- Post-emergence action, score, Solanum (Solanum [11]): 1

Compound: Cn1c(C(F)(F)F)cc(=O)n(-c2nc(OCc3ccccc3)c(Cl)cc2F)c1=O [1.026]
- Pre-emergence action, score, test plant Ipomoea (Ipomoea [1]): 1
- Pre-emergence action, score, test plant Lolium (Lolium [2]): 1
- Pre-emergence action, score, test plant Setaria (Setaria [3]): 1
- Pre-emergence action, score, test plant Sinapis (Sinapis [4]): 1
- Pre-emergence action, score, test plant Solanum (Solanum [5]): 1
- Pre-emergence action, score, test plant Stellaria (Stellaria [6]): 3
- Post-emergence action, score, Ipomoea (Ipomoea [7]): 1
- Post-emergence action, score, Lolium (Lolium [8]): 3
- Post-emergence action, score, Setaria (Setaria [9]): 3
- Post-emergence action, score, Sinapis (Sinapis [10]): 1
- Post-emergence action, score, Solanum (Solanum [11]): 1
- Post-emergence action, score, Stellaria (Stellaria [12]): 3

Compound: CCOc1nc(-n2c(=O)cc(C(F)(F)F)n(C)c2=O)c(F)cc1Cl [1.017]
- Pre-emergence action, score, test plant Ipomoea (Ipomoea [1]): 1
- Pre-emergence action, score, test plant Lolium (Lolium [2]): 1
- Pre-emergence action, score, test plant Setaria (Setaria [3]): 1
- Pre-emergence action, score, test plant Sinapis (Sinapis [4]): 1
- Pre-emergence action, score, test plant Solanum (Solanum [5]): 1
- Pre-emergence action, score, test plant Stellaria (Stellaria [6]): 1
- Post-emergence action, score, Ipomoea (Ipomoea [7]): 1
- Post-emergence action, score, Lolium (Lolium [8]): 1
- Post-emergence action, score, Setaria (Setaria [9]): 1
- Post-emergence action, score, Sinapis (Sinapis [10]): 1
- Post-emergence action, score, Solanum (Solanum [11]): 1
- Post-emergence action, score, Stellaria (Stellaria [12]): 1

Compound: C=CCOc1cc(F)c(-n2c(=O)cc(C(F)(F)F)n(C)c2=O)nc1Cl [500.007]
- Pre-emergence action, score, test plant Setaria (Setaria [3]): 4
- Pre-emergence action, score, test plant Solanum (Solanum [5]): 1

Compound: CSC(=O)COc1cc(F)c(-n2c(=O)cc(C(F)(F)F)n(C)c2=O)nc1Cl [500.033]
- Pre-emergence action, score, test plant Setaria (Setaria [3]): 2
- Pre-emergence action, score, test plant Solanum (Solanum [5]): 1
- Post-emergence action, score, Ipomoea (Ipomoea [7]): 1
- Post-emergence action, score, Sinapis (Sinapis [10]): 1
- Post-emergence action, score, Solanum (Solanum [11]): 1

Compound: COC(=O)C(Oc1cc(Cl)c(-n2c(=O)cc(C(F)(F)F)n(C)c2=O)nc1Cl)c1ccccc1 (centres unmarked) [500.144]
- Pre-emergence action, score, test plant Setaria (Setaria [3]): 2
- Pre-emergence action, score, test plant Solanum (Solanum [5]): 1
